The values that follow come from patent US7414061B2, “Aryl-isoxazol-4-yl-imidazole derivatives” (Hoffmann-La Roche Inc., priority 2005, dated 2008).

For orientation: Ki means a dissociation constant, usually derived from enzyme kinetics or from competition with a known ligand.

The target of the assay is T1, GABA A receptor α5β3γ2 (hα5) (Homo sapiens, UniProt P18507+P31644).
T1 construct: expressed in transfected cells; host or cells: HEK293 (transiently transfected), membrane preparation
As to the kind of experiment: [3H]flumazenil competition binding assay, human GABA A α5β3γ2. The settings on record: displacement of [3H]flumazenil (0.5 nM) from HEK293 cell membranes expressing α5β3γ2; means of two determinations; read-out: Ki[nM] hα5. The procedure: The affinity of compounds at GABA A receptor subtypes was measured by competition for [3H]flumazenil (85 Ci/mmol; Roche) binding to HEK293 cells expressing rat (stably transfected) or human (transiently transfected) receptors of composition α1β3γ2, α2β3γ2, α3β3γ2 and α5β3γ2.
Cell pellets were suspended in Krebs-tris buffer (4.8 mM KCl, 1.2 mM CaCl2, 1.2 mM MgCl2, 120 mM NaCl, 15 mM Tris; pH 7.5; binding assay buffer), homogenized by polytron for ca. 20 sec on ice and centrifuged for 60 min at 4° C. (50000 g; Sorvall, rotor: SM24=20000 rpm). The cell pellets were resuspended in Krebs-tris buffer and homogenized by polytron for ca. 15 sec on ice. Protein was measured (Bradford method, Bio-Rad) and aliquots of 1 mL were prepared and stored at −80° C.
Radioligand binding assays were carried out in a volume of […] (96-well plates) which contained […] of cell membranes, [3H]flumazenil at a concentration of 1 nM for α1, α2, α3 subunits and 0.5 nM for α5 subunits and the test compound in the range of […]. Nonspecific binding was defined by 10^−5 M diazepam and typically represented less than 5% of the total binding. Assays were incubated to equilibrium for 1 hour at 4° C. and harvested onto GF/C uni-filters (Packard) by filtration using a Packard harvester and washing with ice-cold wash buffer (50 mM Tris; pH 7.5). After drying, filter-retained radioactivity was detected by liquid scintillation counting. Ki values were calculated using Excel-Fit (Microsoft) and are the means of two determinations.
Background: In a radioligand displacement assay an active substance lowers the binding of a labelled ligand.
With `Cc1ccc(-n2cnc(-c3c(-c4ccc(F)cc4)noc3C)c2)cc1[N+](=O)[O-]` [Example 131, 3-(4-Fluoro-phenyl)-5-methyl-4-[1-(4-methyl-3-nitro-phenyl)-1H-imidazol-4-yl]-isoxazole], the Ki was 21.5 nM.
As for `C#CCNC(=O)c1ccc(-n2cnc(-c3c(-c4cccc(F)c4)noc3C)c2)cc1` [Example 97, 4-{4-[3-(3-Fluoro-phenyl)-5-methyl-isoxazol-4-yl]-imidazol-1-yl}-N-prop-2-ynyl-benzamide], the figure is 10 nM.
With `CCc1onc(-c2ccc(F)cc2)c1-c1cn(-c2ccc(C(F)(F)F)cc2)cn1` [Example 133, 5-Ethyl-3-(4-fluoro-phenyl)-4-[1-(4-trifluoromethyl-phenyl)-1H-imidazol-4-yl]-isoxazole], the Ki stood at 29.8 nM.
In the case of `Cc1onc(-c2ccccc2)c1-c1cn(-c2ncccn2)cn1` [Example 33, 2-[4-(5-Methyl-3-phenyl-isoxazol-4-yl)-imidazol-1-yl]-pyrimidine] it was 15 nM.
Turning to `Cc1onc(-c2ccc(F)cc2)c1-c1cn(-c2ncccn2)cn1` [Example 48, 2-{4-[3-(4-Fluoro-phenyl)-5-methyl-isoxazol-4-yl]-imidazol-1-yl}-pyrimidine], the Ki was 17.6 nM.
In the case of `CCOc1ccc(-n2cnc(-c3c(-c4ccccc4)noc3C)c2)cc1` [Example 19, 4-[1-(4-Ethoxy-phenyl)-1H-imidazol-4-yl]-5-methyl-3-phenyl-isoxazole] it was 28.7 nM; in that of `Cc1onc(-c2ccccc2)c1-c1cn(-c2ccc(C(F)(F)F)cc2)c(COCc2ccccc2)n1` [Example 64, 4-[2-Benzyloxymethyl-1-(4-trifluoromethyl-phenyl)-1H-imidazol-4-yl]-5-methyl-3-phenyl-isoxazole], 14.7 nM.
Consider `Cc1onc(-c2ccccc2)c1-c1cn(-c2cccc(C(=O)NC3CC3)c2)cn1` [Example 84, N-Cyclopropyl-3-[4-(5-methyl-3-phenyl-isoxazol-4-yl)-imidazol-1-yl]-benzamide], for which the Ki was found to be 31.8 nM.
As for `Cc1onc(-c2ccccc2)c1-c1cn(-c2ccc(C(=O)NC3CCC3)cc2)cn1` [Example 75, N-Cyclobutyl-4-[4-(5-methyl-3-phenyl-isoxazol-4-yl)-imidazol-1-yl]-benzamide], the figure is 2.7 nM.
As for `Cc1onc(-c2ccc(Br)cc2)c1-c1cn(-c2ccc([N+](=O)[O-])cc2)cn1` [Example 50, 3-(4-Bromo-phenyl)-5-methyl-4-[1-(4-nitro-phenyl)-1H-imidazol-4-yl]-isoxazole], the figure is 21.6 nM; as for `Cc1onc(-c2ccccc2)c1-c1cn(-c2ccc(C#N)cc2)cn1` [Example 16, 4-[4-(5-Methyl-3-phenyl-isoxazol-4-yl)-imidazol-1-yl]-benzonitrile], 15.1 nM.
In the case of “1-{4-(4-[5-Ethyl-3-(4-fluoro-phenyl)-isoxazol-4-yl]-imidazol-1-yl}-phenyl)-ethanone [Example 132]” it was 4.7 nM; in that of `CC(=O)c1ccc(-n2cnc(-c3c(-c4ccc(Br)cc4)noc3C)c2)cc1` [Example 49, 1-(4-{4-[3-(4-Bromo-phenyl)-5-methyl-isoxazol-4-yl]-imidazol-1-yl}-phenyl)-ethanone], 9.1 nM.
For `N#Cc1ccc(-n2cnc(-c3c(-c4ccccc4)noc3CO)c2)cc1` [Example 139, 4-[4-(5-Hydroxymethyl-3-phenyl-isoxazol-4-yl)-imidazol-1-yl]-benzonitrile], the Ki was 28.2 nM.
In the case of `Cc1onc(-c2ccccc2)c1-c1cn(-c2cc(F)cc(F)c2)cn1` [Example 24, 4-[1-(3,5-Difluoro-phenyl)-1H-imidazol-4-yl]-5-methyl-3-phenyl-isoxazole] it was 29 nM; in that of `Cc1onc(-c2ccccc2)c1-c1cn(-c2ccc(F)cc2)cn1` [Example 3, 4-[1-(4-Fluoro-phenyl)-1H-imidazol-4-yl]-5-methyl-3-phenyl-isoxazole], 29.6 nM; in that of `Cc1onc(-c2ccccc2)c1-c1cn(-c2ccc(C(F)(F)F)cc2)cn1` [Example 14, 5-Methyl-3-phenyl-4-[1-(4-trifluoromethyl-phenyl)-1H-imidazol-4-yl]-isoxazole], 30.7 nM.
On to `CCc1onc(-c2ccccc2)c1-c1cn(-c2ccc(C(C)=O)cc2)cn1` [Example 30, 1-{4-[4-(5-Ethyl-3-phenyl-isoxazol-4-yl)-imidazol-1-yl]-phenyl}-ethanone], for which the Ki came to 9.9 nM.
In the case of `Cc1onc(-c2ccccc2)c1-c1cn(-c2cccc(C#N)c2)cn1` [Example 17, 3-[4-(5-Methyl-3-phenyl-isoxazol-4-yl)-imidazol-1-yl]-benzonitrile], the Ki is 27 nM.
As for `CC(=O)c1ccc(-n2cc(-c3c(-c4ccccc4)noc3C)nc2COCc2ccccc2)cc1` [Example 62, 1-{4-[2-Benzyloxymethyl-4-(5-methyl-3-phenyl-isoxazol-4-yl)-imidazol-1-yl]-phenyl}-ethanone], the figure is 5.4 nM; as for `Cc1onc(-c2ccccc2)c1-c1cn(-c2ccc(C(=O)NC3CC3)cc2)cn1` [Example 74, N-Cyclopropyl-4-[4-(5-methyl-3-phenyl-isoxazol-4-yl)-imidazol-1-yl]-benzamide], 5.1 nM.
As for `Cc1onc(-c2ccccc2)c1-c1cn(-c2ccc([N+](=O)[O-])cc2)c(COCc2cccnc2)n1` [Example 163, 3-[4-(5-Methyl-3-phenyl-isoxazol-4-yl)-1-(4-nitro-phenyl)-1H-imidazol-2-ylmethoxymethyl]-pyridine], the figure is 9.5 nM; as for `Cc1onc(-c2ccccc2)c1-c1cn(-c2ccc([N+](=O)[O-])cc2)c(COCc2ccccc2F)n1` [Example 160, 4-[2-(2-Fluoro-benzyloxymethyl)-1-(4-nitro-phenyl)-1H-imidazol-4-yl]-5-methyl-3-phenyl-isoxazole], 12.7 nM.
Consider `CC(=O)c1ccc(-n2cnc(-c3c(-c4ccccc4)noc3C)c2)cc1` [Example 12, 1-{4-[4-(5-Methyl-3-phenyl-isoxazol-4-yl)-imidazol-1-yl]-phenyl}-ethanone], for which the Ki was 5.5 nM.
Take `Cc1onc(-c2ccccc2)c1-c1cn(-c2ccc(C#N)cc2)c(COCc2ccccc2)n1` [Example 65, 4-[2-Benzyloxymethyl-4-(5-methyl-3-phenyl-isoxazol-4-yl)-imidazol-1-yl]-benzonitrile]: the Ki worked out at 19.1 nM.
As for `Cc1onc(-c2ccccc2)c1-c1cn(-c2ccc(C(=O)NCc3ccncc3)cc2)cn1` [Example 79, 4-[4-(5-Methyl-3-phenyl-isoxazol-4-yl)-imidazol-1-yl]-N-pyridin-4-ylmethyl-benzamide], the figure is 14 nM.
As for `CC(=O)c1ccc(-n2cnc(-c3c(-c4ccc(F)cc4)noc3C)c2)cc1` [Example 46, 1-(4-{4-[3-(4-Fluoro-phenyl)-5-methyl-isoxazol-4-yl]-imidazol-1-yl}-phenyl)-ethanone], the figure is 4.7 nM; as for `Cc1onc(-c2ccc(F)cc2)c1-c1cn(-c2ccc(C#N)cc2)cn1` [Example 116, 4-{4-[3-(4-Fluoro-phenyl)-5-methyl-isoxazol-4-yl]-imidazol-1-yl}-benzonitrile], 13.2 nM; as for `Cc1onc(-c2ccccc2)c1-c1cn(-c2cccc(C(F)(F)F)c2)cn1` [Example 10, 5-Methyl-3-phenyl-4-[1-(3-trifluoromethyl-phenyl)-1H-imidazol-4-yl]-isoxazole], 20.4 nM.
Turning to `Cc1onc(-c2ccccc2)c1-c1cn(-c2ccc([N+](=O)[O-])cc2)c(COCc2ccccn2)n1` [Example 161, 2-[4-(5-Methyl-3-phenyl-isoxazol-4-yl)-1-(4-nitro-phenyl)-1H-imidazol-2-ylmethoxymethyl]-pyridine], the Ki worked out at 16.3 nM.
In the case of `COc1ccc(-n2cnc(-c3c(-c4ccccc4F)noc3C)c2)cc1` [Example 38, 3-(2-Fluoro-phenyl)-4-[1-(4-methoxy-phenyl)-1H-imidazol-4-yl]-5-methyl-isoxazole] it was 24 nM; in that of `COc1ccc(-n2cnc(-c3c(-c4ccccc4)noc3C)c2)cc1` [Example 18, 4-[1-(4-Methoxy-phenyl)-1H-imidazol-4-yl]-5-methyl-3-phenyl-isoxazole], 21 nM; in that of `Cc1onc(-c2ccccc2)c1-c1cn(-c2ccc([N+](=O)[O-])cc2)c(COCc2ccc(C(F)(F)F)nc2)n1` [Example 164, 5-[4-(5-Methyl-3-phenyl-isoxazol-4-yl)-1-(4-nitro-phenyl)-1H-imidazol-2-ylmethoxymethyl]-2-trifluoromethyl-pyridine], 27 nM.
Take `Cc1onc(-c2ccc(F)cc2)c1-c1cn(-c2ccncc2)cn1` [Example 117, 4-{4-[3-(4-Fluoro-phenyl)-5-methyl-isoxazol-4-yl]-imidazol-1-yl}-pyridine]: the Ki is 13.3 nM.
In the case of `COC(=O)c1cccc(-n2cnc(-c3c(-c4ccccc4)noc3C)c2)c1` [Example 11, 3-[4-(5-Methyl-3-phenyl-isoxazol-4-yl)-imidazol-1-yl]-benzoic acid methyl ester] it was 15.1 nM.
